In brackets after ≈: the same amount, converted by molar mass.
Tests used:
Sarcoma 180 cells [1] = assay: Antitumor activity on Sarcoma 180 cells in ICR mice, oral; format: in vivo; settings: 0.3 mg/mouse, 9 times, tumor weight after 21 days
Description: (§1) Antitumor Activity of Compounds Obtained in Examples on Sarcoma 180 Cells
(1) Sarcoma 180 cells were subcutaneously transplanted to the side of the back of ICR mice (5 mice per group) at 1×10^6 cells per animal. 8, 9, 10, 13, 14, 15, 16, 17 and 20 days after the transplantation (a total of 9 times), the compound of Example 1, dissolved in physiological saline, was orally administered (0.3 mg/mouse). After 21 days, the tumor tissue was excised and weighed.

[2] = tested on: human oral epidermoid carcinoma KB cells; assay: Growth inhibitory effect against KB cells (MTT, 72 h); format: cell-based; settings: absorbance 590 nm
Description: Growth Inhibitory Effect (IC50) of Compounds Obtained in Examples Against KB Cells Human oral epidermoid carcinoma KB cells (1×10^4 cells/ml) were transferred to a 96-well microwell plate at 0.1 ml per well and subjected to stationary culture at 37° C. with 5% CO2 for 24 hours. To the resulting culture was added a 10% MEM (Nissui Junyaku) solution of a compound of an Example, followed by stationary culture at 37° C. with 5% CO2 for 72 hours. The culture broth was then removed using a micropipette. 0.1 ml of a 10% minimal essential medium solution containing 3-(4,5-dimethylthiazol-2-yl)-2,5-diphenyl-2H-tetrazolium bromide (Dojin Kagaku) (1.0 mg/ml) was added, followed by cultivation at 37° C. for 4 hours. 0.1 ml of a 10% sodium dodecylsulfate (Wako Pure Chemical) was then added, followed by cultivation at 37° C. for 24 hours.

CDF-1 mice = assay: Acute toxicity test in mice, single intraperitoneal administration; format: in vivo; settings: single i.p., female CDF-1 mice, 7 days observation
Description: Acute Toxicity Test with Compounds of Example in Mice
0.2 ml of a solution of a compound of the Example in physiological saline was intraperitoneally administered once to female CDF-1 mice (5 weeks in age, 5 animals per group). Observation was conducted for 7 days following the administration.

Sarcoma 180 cells [3] = assay: Antitumor activity on Sarcoma 180 cells in ICR mice, intraperitoneal; format: in vivo; settings: 0.1 mg/mouse, 8 times, tumor weight after 21 days
Description: as §1
(2) Sarcoma 180 cells were subcutaneously transplanted to the side of the back of ICR mice (5 mice per group) at 1×10^6 cells per animal. 8, 9, 12, 13, 15, 16, 19 and 20 days after the transplantation (a total of 8 times), a compound of an Example, dissolved in physiological saline, was intraperitoneally administered (0.1 mg/mouse). After 21 days, the tumor tissue was excised and weighed.

[4] = cited from earlier work

Structure (SMILES) | IC50 [2] | other results
CCCCCCCCCCCCCCCCCCOCC(COCCOCC[n+]1ccn(CCCCCC(=O)[O-])c1)Oc1ncccn1 (stereo not shown) [Example 1, 6-[3-[2-[2-[3-octadecyloxy-2-(pyrimidin-2-yloxy)-propoxy]ethoxy]ethyl]imidazolio-1yl]hexanoate] | 0.16 µg/mL (≈ 0.237 µM) | Growth inhibition ratio (1-T/C %) (Sarcoma 180 cells [1]): 65%; Number of mice that died/number of subject mice (CDF-1 mice; 50 mg/kg): 0/5
CCCCCCCCCCCCCCCCCCOCC(COCCOCC[n+]1ccn(CCCCCC(=O)[O-])c1)OCC(C)=O (stereo not shown) [Example 3] | 0.32 µg/mL (≈ 0.49 µM) | Number of mice that died/number of subject mice (CDF-1 mice; 50 mg/kg): 0/5
CCCCCCCCCCCCCCCCCCOCC(COCCOCC[N+](C)(C)CCCCCC(=O)[O-])OCC(C)=O (stereo not shown) [Example 5, 6-[N,N-dimethyl-N-[2-[2-[3-octadecyloxy-2-(2-oxopropoxy)propoxy]ethoxy]ethyl]ammonio]hexanoate] | 2.5 µg/mL (≈ 3.97 µM) | Number of mice that died/number of subject mice (CDF-1 mice; 50 mg/kg): 0/5
CCCCCCCCCCCCCCCCCCOCC(COCCOCC[n+]1ccn(CC(=O)[O-])c1)OCCCCCC (stereo not shown) [Example 6, 2-[3-[2-[2-[2-hexyloxy-3-octadecyloxypropoxy]-ethoxy]ethyl]imidazolio-1-yl]acetate] | 2.5 µg/mL (≈ 4 µM) | Number of mice that died/number of subject mice (CDF-1 mice; 50 mg/kg): 0/5
CCCCCCCCCCCCCCCCCCOCC(COCCOCC[n+]1ccn(CCCC(=O)[O-])c1)Oc1ncccn1 (stereo not shown) [Example 8, 4-[3-[2-[2-[3-octadecyloxy-2-(pyrimidin-2-yloxy)-propoxy]ethoxy]ethyl]imidazolio-1-yl]butyrate] | 1.25 µg/mL (≈ 1.93 µM) | Growth inhibition ratio (1-T/C %) (Sarcoma 180 cells [3]): 66%; Number of mice that died/number of subject mice (CDF-1 mice; 100 mg/kg): 0/5
CCCCCCCCCCCCCCCCCCOCC(COCCOCC[N+](C)(C)CCCCCC(=O)[O-])Oc1ncccn1 (stereo not shown) [Example 9, 6-[N,N-dimethyl-N-[2-[2-[3-octadecyloxy-2-(pyrimidin-2-yloxy)propoxy]ethoxy]ethyl]ammonio]-hexanoate] | 1.25 µg/mL (≈ 1.92 µM) | Number of mice that died/number of subject mice (CDF-1 mice; 100 mg/kg): 0/5
CCCCCCCCCCCCCCCCCCOCC(COCCOCC[n+]1ccn(CCCCc2ccc(C(=O)[O-])cc2)c1)Oc1ncccn1 (stereo not shown) [Example 10, 4-[4-[3-[2-[2-[3-octadecyloxy-2-(pyrimidin-2-yloxy)-propoxy]ethoxy]ethyl]imidazolio-1-yl]butyl]benzoate] | 0.32 µg/mL (≈ 0.434 µM) | Number of mice that died/number of subject mice (CDF-1 mice; 50 mg/kg): 0/5
CCCCCCCCCCCCCCCCCCOCC(COCCOCC[n+]1cccc(CCC(=O)[O-])c1)Oc1ncccn1 (stereo not shown) [Example 12, 3-[1-[2-[2-[3-octadecyloxy-2-(pyrimidin-2-yloxy)-propoxy]ethoxy]ethyl]pyridinio-3-yl]propionate] | 0.63 µg/mL (≈ 0.978 µM) | Growth inhibition ratio (1-T/C %) (Sarcoma 180 cells [3]): 81%; Number of mice that died/number of subject mice (CDF-1 mice; 100 mg/kg): 0/5
CCCCCCCCCCCCCCCCCCOCC(COCCOCCOCC[n+]1ccn(CCCCCC(=O)[O-])c1)Oc1ncccn1 (stereo not shown) [Example 20, 6-[3-[2-[2-[2-[3-octadecyloxy-2-(pyrimidin-2-yloxy)propoxy]ethoxy]ethoxy]ethyl]imidazolio-1-yl]-hexanoate] | 0.32 µg/mL (≈ 0.445 µM) | Number of mice that died/number of subject mice (CDF-1 mice; 100 mg/kg): 0/5
CCCCCCCCCCCCCCCCCCOCC(COCCOCCOCC[n+]1ccn(CCCC(=O)[O-])c1)Oc1ncccn1 (stereo not shown) [Example 21, 4-[3-[2-[2-[2-[3-octadecyloxy-2-(pyrimidin-2-yloxy)propoxy]ethoxy]ethoxy]ethyl]imidazolio-1-yl]-butyrate] | 0.63 µg/mL (≈ 0.912 µM) | Number of mice that died/number of subject mice (CDF-1 mice; 100 mg/kg): 0/5
CCCCCCCCCCCCCCCCCCOCC(COP(=O)([O-])OCC[N+](C)(C)C)OC (stereo not shown) [phospholipid represented by formula (II)] |  | antitumor activities ([4]; Anticancer Research, 1, 345 (1981)): possess antitumor activities; adverse effects ([4]; clinical trial limitation, similarity to PAF): various adverse effects such as bronchostenosis, platelet aggregation and hypotension

Now from value to compound, other results behind:

IC50 [2] | Structure (SMILES) | other results
0.16 µg/mL (≈ 0.223 µM) | CCCCCCCCCCCCCCCCCCOCC(COCCOCC[n+]1ccn(CCCCCCCCC(=O)[O-])c1)Oc1ncccn1 (stereo not shown) [Example 7] | 
0.32 µg/mL (≈ 0.431 µM) | CCCCCCCCCCCCCCCCCCOCC(COCCOCC[n+]1ccn(CCCCC2CCC(C(=O)[O-])CC2)c1)Oc1ncccn1 (stereo not shown) [Example 11, 4-[4-[3-[2-[2-[3-octadecyloxy-2-(pyrimidin-2-yloxy)propoxy]ethoxy]ethyl]imidazolio-1-yl]butyl]-cyclohexylcarboxylate] | 
0.32 µg/mL | CCCCCCCCCCCCCCCCCCOCC(COCCOCC[n+]1ccn(CCCCCC(=O)OC)c1)Oc1ncccn1.[Cl-] (stereo not shown) [Example 14, 1-(5-methoxycarbonylpentyl)-3-[2-[2-[3-octadecyloxy-2-(pyrimidin-2-yloxy)propoxy]ethoxy]-ethyl]imidazolium chloride] | 
0.63 µg/mL | CCCCCCCCCCCCCCCCCCOCC(COCCOCC[n+]1ccn(CCC(C)(C)C(=O)OCC)c1)Oc1ncccn1 (stereo not shown) [Example 15, 1-(3-ethoxycarbonyl-3-methyl)butyl-3-[2-[2-[3-octadecyloxy-2-(pyrimidin-2-yloxy)propoxy]-ethoxy]ethylimidazolium chloride] | 
0.63 µg/mL (≈ 0.933 µM) | CCCCCCCCCCCCCCCCCCOCC(COCCOCC[n+]1ccn(CCC(C)(C)C(=O)[O-])c1)Oc1ncccn1 (stereo not shown) [Example 16, 2,2-dimethyl-4-[3-[2-[2-[3-octadecyloxy-2-(pyrimidin-2-yloxy)propoxy]ethoxy]ethyl]imidazolio-1-yl]butyrate] | 
0.32 µg/mL (≈ 0.472 µM) | CCCCCCCCCCCCCCCCCCOCC(COCCOCC[N+]1(CCCCCC(=O)[O-])CCCC1)Oc1ncccn1 (stereo not shown) [Example 17, 6-[1-[2-[2-[3-octadecyloxy-2-(pyrimidin-2-yloxy)-propoxy]ethoxy]ethyl]pyrrolidinio-1-yl]hexanoate] | 
0.32 µg/mL | CCCCCCCCCCCCCCCCCCOCC(COCCOCC[n+]1ccn(CCCOC(=O)CCC(=O)[O-])c1)Oc1ncccn1 (stereo not shown) [Example 18, 3-[3-[2-[2-[3-octadecyloxy-2-(pyrimidin-2-yloxy)-propoxy]ethoxy]ethyl]imidazolio-1-yl]propyl succinate] | 
0.63 µg/mL | CCCCCCCCCCCCCCCCCCOCC(COCCOCC[n+]1cccc(CCCOC(=O)CCC(=O)[O-])c1)Oc1ncccn1 (stereo not shown) [Example 19, 3-[1-[2-[2-[3-octadecyloxy-2-(pyrimidin-2-yloxy)-propoxy]ethoxy]ethyl]pyridinio-3-yl]propyl succinate] | 
0.63 µg/mL (≈ 1 µM) | CCCCCCCCCCCCCCCCCCOCC(COCCCC[n+]1cccc(CCC(=O)[O-])c1)Oc1ncccn1 (stereo not shown) [Example 22, 3-[1-[4-[3-octadecyloxy-2-(pyrimidin-2-yloxy)-propoxy]butyl]pyridinio-3-yl]propionate] | 
0.32 µg/mL (≈ 0.488 µM) | CCCCCCCCCCCCCCCCCCOCC(COCCCC[n+]1cccc(CCCCC(=O)[O-])c1)Oc1ncccn1 (stereo not shown) [Example 23, 5-[1-[4-[3-octadecyloxy-2-(pyrimidin-2-yloxy)-propoxy]butyl]pyridinio-3-yl]pentanoate] | 
0.32 µg/mL (≈ 0.496 µM) | O=C([O-])CCCn1cc[n+](CCOCCOCC(COCCCCCCCCCCCCC2CCCCC2)Oc2ncccn2)c1 (stereo not shown) [Example 24, 4-[3-[2-[2-[3-(12-cyclohexyldodecyloxy)-2-(pyrimidin-2-yloxy)propoxy]ethoxy]ethyl]imidazolio-1-yl]butyrate] | 
0.16 µg/mL (≈ 0.238 µM) | O=C([O-])CCCCCn1cc[n+](CCOCCOCC(COCCCCCCCCCCCCC2CCCCC2)Oc2ncccn2)c1 (stereo not shown) [Example 25, 6-[3-[2-[2-[3-(12-cyclohexyldodecyloxy)-2-(pyrimidin-2-yloxy)propoxy]ethoxy]ethyl]imidazolio-1-yl]hexanoate] | 

Source: patent US5081245A, “Carboxylic acid derivatives” (Takeda Chemical Industries, Ltd., priority 1988, dated 1992)
